Measurements reported in patent publication US8431597B2, “Benzimidazole derivatives” (Pfizer Inc., priority 2007, dated 2013).
Where a name gives a salt, the structure may show the parent alone.

Target: T1, Smoothened (SMO) (Mus musculus, UniProt P56726)
T1 construct: C3H10T1/2 cells (ATCC #CCL-226) were split and seeded; endogenous in cells; host or cells: C3H10T1/2 (ATCC #CCL-226)
Test: Smoothened (SMO)/Sonic Hedgehog (SHh) Transient Transcriptional Activation Assay (Gli-luciferase reporter in C3H10T1/2 cells)
Format: cell-based, murine
Details: C3H 10T1/2, 2 μM compound; transfected C3H10T1/2 cells, recombinant human SHh 250 ng/mL, 20 hours, luciferase readout; read-out: SMO CELL % INHIBITION @ 2 μM
Method: As noted above, the compounds of the invention are useful as inhibitors of SMO. • Methods for determining the in vitro activity of these compounds are described below: Smoothened (SMO)/Sonic Hedgehog (SHh) Transient Transcriptional Activation Assay
On Day 1, 2×10^6 C3H10T1/2 cells (ATCC #CCL-226) were split and seeded in 12 mL of growth medium Basal Medium Eagle (BME, Invitrogen #21010-046) supplemented with 2 mM L-glutamine (Invitrogen #25030-081), 0.1 units/mL penicillin and 0.1 μg/mL streptomycin (Invitrogen #15140-122), and 10% Fetal Bovine Serum (FBS, Invitrogen #16140-071) in a T-75 flask (Costar #3376). They were allowed to attach for 4 hours at 37° C., 5% CO2. The cells were then transfected using Fugene 6 (Roch #11 814 443 001) in the following reaction: 48 μL Fugene 6 and 745 μL Opti-MEM (Invitrogen #31985-070) were mixed and allowed to sit at room temperature for 5 minutes. 8 μg of pGL4.14/mGli(CS) DNA (10× murine Gli response elements and minimal CS promoter) and 0.5 μg of pEGFP DNA (Clontech) were added, gently mixed and incubated at room temperature for 20 minutes. This entire transfection mix was then added to the T-75 flask containing the cells. The cells were incubated at 37° C., 5% CO2 for 18-24 hours.
On Day 2, the transfected cells were trypsinized and seeded into white 96 well plates (Costar #3917) in 100 μL/well of growth medium at a concentration of 20,000 cells/well. The cells were allowed to recover for 4 hours before adding serum starvation medium Dulbecco's Modified Eagle Medium (DMEM, Invitrogen #21063-029) supplemented with 2 mM L-glutamine, 0.1 units/mL penicillin and 0.1 μg/mL streptomycin, and 0.5% Calf Serum (CS, Invitrogen #26170-043). The growth media was aspirated off, and the cells were rinsed with 100 μL of starvation media. 95 μL of starvation media was then added to each well. The cells were incubated for 20 hours at 37° C., 5% CO2.
On Day 3, cells were dosed with test compounds at a final concentration ranging from 2 μM to 2 nM. Immediately after dosing cells with compounds, recombinant human sonic hedgehog (SHh, R&D Systems #1845-SH) was add to a final concentration of 250 ng/mL. A 25 μg vial of SHh was reconstituted with 250 μL PBS/0.1% BSA to give a 100 ng/μL working stock. This working stock was then diluted 1:20 in starvation media. The transfected cells were incubated with compounds and SHh for 20 hours at 37° C., 5% CO2.
Luciferase assays were conducted on Day 4 using Dual-Glo Luciferase assay system (Promega #E2940) according to Promega's protocol. Briefly, Dual-Glo luciferase reagent was made up and 100 μL were added to each well of the 96 well plate containing media. Plates were shaken at room temperature for 10 minutes, and then read on TopCount (Perkin-Elmer). The luminescence was recorded.

T1 sequence (P56726 33-793): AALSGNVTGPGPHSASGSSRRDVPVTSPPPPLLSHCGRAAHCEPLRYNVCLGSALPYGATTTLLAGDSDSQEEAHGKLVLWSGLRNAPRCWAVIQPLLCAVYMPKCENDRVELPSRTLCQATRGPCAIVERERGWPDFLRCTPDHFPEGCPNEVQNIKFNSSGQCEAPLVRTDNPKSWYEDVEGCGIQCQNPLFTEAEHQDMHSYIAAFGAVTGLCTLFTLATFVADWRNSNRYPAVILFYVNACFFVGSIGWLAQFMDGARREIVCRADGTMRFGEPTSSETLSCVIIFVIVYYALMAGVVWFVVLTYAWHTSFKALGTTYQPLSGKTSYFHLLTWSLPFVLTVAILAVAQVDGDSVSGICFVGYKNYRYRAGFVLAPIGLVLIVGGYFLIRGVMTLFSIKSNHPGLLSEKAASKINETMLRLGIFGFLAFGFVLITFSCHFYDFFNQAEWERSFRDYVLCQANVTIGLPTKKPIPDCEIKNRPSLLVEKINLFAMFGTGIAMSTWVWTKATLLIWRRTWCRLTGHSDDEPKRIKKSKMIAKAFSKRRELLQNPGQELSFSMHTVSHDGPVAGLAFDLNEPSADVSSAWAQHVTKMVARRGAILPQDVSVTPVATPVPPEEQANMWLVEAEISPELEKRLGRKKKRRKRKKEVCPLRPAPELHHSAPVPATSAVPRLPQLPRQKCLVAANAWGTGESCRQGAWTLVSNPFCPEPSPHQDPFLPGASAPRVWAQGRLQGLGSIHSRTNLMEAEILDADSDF

| Structure (SMILES) | inhibition at 2 µM [%] |
| --- | --- |
| CN(C)c1ccc(NC(=O)N[C@@H]2CCN(C)[C@@H](c3nc4ccccc4[nH]3)C2)cc1 [Example 56, 1-[(2R,4R)-2-(1H-benzimidazol-2-yl)-1-methylpiperidin-4-yl]-3-[4-(dimethylamino)phenyl]urea hydrochloride] | 104 |
| CN1CC[C@@H](NC(=O)c2ccc3c(c2)OCCO3)C[C@@H]1c1nc2cc(F)c(F)cc2[nH]1 [Example 57, N-[(2R,4R)-2-(5,6-difluoro-1H-benzimidazol-2-yl)-1-methylpiperidin-4-yl]-2,3-dihydro-1,4-benzodioxine-6-carboxamide hydrochloride] | 104 |
| CN1C[C@@H](NC(=O)Nc2ccc(Cl)c(C(F)(F)F)c2)C[C@H]1c1nc2ccc(F)cc2[nH]1 [Example 58, 1-[4-chloro-3-(trifluoromethyl)phenyl]-3-[(3S,5S)-5-(6-fluoro-1H-benzimidazol-2-yl)-1-methylpyrrolidin-3-yl]urea] | 104 |
| CC(C)CCN1CC[C@@H](NC(=O)Nc2ccc(C#N)cc2)C[C@@H]1c1nc2ccccc2[nH]1 [Example 60, 1-[(2R,4R)-2-(1H-benzimidazol-2-yl)-1-(3-methylbutyl)piperidin-4-yl]-3-(4-cyanophenyl)urea] | 104 |
| N#Cc1ccc(NC(=O)N[C@@H]2CCN(Cc3ccccc3)[C@@H](c3nc4ccccc4[nH]3)C2)cc1 [Example 61, 1-[(2R,4R)-2-(1H-benzimidazol-2-yl)-1-benzylpiperidin-4-yl]-3-(4-cyanophenyl)urea] | 99.5 |
| COc1ccc2[nH]c([C@H]3C[C@H](NC(=O)Nc4ccc(C(F)(F)F)nc4)CCN3C)nc2c1 [Example 62, 1-[(2R,4R)-2-(5-methoxy-1H-benzimidazol-2-yl)-1-methylpiperidin-4-yl]-3-[6-(trifluoromethyl)pyridin-3-yl]urea hydrochloride] | 104 |
| CN1CC[C@@H](NC(=O)c2ccc3c(c2)OCCO3)C[C@@H]1c1nc2ccc(C#N)cc2[nH]1 [Example 63, N-[(2R,4R)-2-(6-cyano-1H-benzimidazol-2-yl)-1-methylpiperidin-4-yl]-2,3-dihydro-1,4-benzodioxine-6-carboxamide hydrochloride] | 104 |
| CN1CC[C@@H](NC(=O)Nc2ccc(C#N)cc2)C[C@@H]1c1nc2cc(Cl)ccc2[nH]1 [Example 64, 1-[(2R,4R)-2-(5-chloro-1H-benzimidazol-2-yl)-1-methylpiperidin-4-yl]-3-(4-cyanophenyl)urea hydrochloride] | 103 |
| Cc1ccc2[nH]c([C@H]3C[C@H](NC(=O)Nc4ccc(C(F)(F)F)nc4)CCN3C)nc2c1 [Example 65, 1-[(2R,4R)-1-methyl-2-(5-methyl-1H-benzimidazol-2-yl)piperidin-4-yl]-3-[6-(trifluoromethyl)pyridin-3-yl]urea hydrochloride] | 103 |
| CN1CC[C@@H](NC(=O)Nc2ccc(C(F)(F)F)nc2)C[C@@H]1c1nc2ccccc2[nH]1 [Example 66, 1-[(2R,4R)-2-(1H-benzimidazol-2-yl)-1-methylpiperidin-4-y1]-3-[6-(trifluoromethyl)pyridin-3-yl]urea hydrochloride] | 103 |
| CN1CC[C@@H](NC(=O)Nc2ccc3c(c2)OCCO3)C[C@@H]1c1nc2ccccc2[nH]1 [Example 67, 1-[(2R,4R)-2-(1H-benzimidazol-2-yl)-1-methylpiperidin-4-yl]-3-(2,3-dihydro-1,4-benzodioxin-6-yl)urea hydrochloride] | 103 |
| CN1CC[C@@H](NC(=O)c2ccc(C(=O)C(F)(F)F)cc2)C[C@@H]1c1nc2ccccc2[nH]1 [Example 68, N-[(2R,4R)-2-(1H-benzimidazol-2-yl)-1-methylpiperidin-4-yl]-4-(trifluoroacetyl)benzamide] | 102 |
| Cc1cncc(NC(=O)N[C@@H]2CCN(C)[C@@H](c3nc4ccccc4[nH]3)C2)c1 [Example 69, 1-[(2R,4R)-2-(1H-benzimidazol-2-yl)-1-methylpiperidin-4-yl]-3-(5-methylpyridin-3-yl)urea hydrochloride] | 102 |
| N#Cc1ccc(NC(=O)N[C@@H]2CCN(C3CCC3)[C@@H](c3nc4ccccc4[nH]3)C2)cc1 [Example 70, 1-[(2R,4R)-2-(1H-benzimidazol-2-yl)-1-cyclobutyl-piperidin-4-yl]-3-(4-cyanophenyl)urea] | 101 |
| Cc1cc(NC(=O)N[C@@H]2CCN(C)[C@@H](c3nc4ccccc4[nH]3)C2)cnc1C [Example 71, 1-[(2R,4R)-2-(1H-benzimidazol-2-yl)-1-methylpiperidin-4-yl]-3-(5,6-dimethylpyridin-3-yl)urea hydrochloride] | 101 |
| CN1CC[C@@H](NC(=O)c2ccc(N=[N+]=[N-])cc2)C[C@@H]1c1nc2ccccc2[nH]1 [Example 72, 4-azido-N-[(2R,4R)-2-(1H-benzimidazol-2-yl)-1-methylpiperidin-4-yl]benzamide] | 101 |
| CN1CC[C@@H](NC(=O)Nc2ccc(C(F)(F)F)nc2)C[C@@H]1c1nc2ccc(Cl)cc2[nH]1 [Example 73, 1-[(2R,4R)-2-(6-chloro-1H-benzimidazol-2-yl)-1-methylpiperidin-4-yl]-3-[6-(trifluoromethyl)pyridin-3-yl]urea hydrochloride] | 101 |
| CN1CC[C@@H](NC(=O)c2cc(-c3ccncc3)n[nH]2)C[C@@H]1c1nc2ccccc2[nH]1 [Example 74, N-[(2R,4R)-2-(1H-benzimidazol-2-yl)-1-methylpiperidin-4-yl]-3-pyridin-4-yl-1H-pyrazole-5-carboxamide hydrochloride] | 101 |
| CN1CC[C@@H](NC(=O)Nc2ccccc2)C[C@@H]1c1nc2ccccc2[nH]1 [Example 75, 1-[(2R,4R)-2-(1H-benzimidazol-2-yl)-1-methylpiperidin-4-yl]-3-phenylurea hydrochloride] | 100 |
| CN1CC[C@@H](NC(=O)NCc2ccccc2)C[C@@H]1c1nc2ccccc2[nH]1 [Example 76, 1-[(2R,4R)-2-(1H-benzimidazol-2-yl)-1-methylpiperidin-4-yl]-3-benzylurea hydrochloride] | 100 |
| Cc1cc2nc([C@H]3C[C@H](NC(=O)Nc4ccc(C(F)(F)F)nc4)CCN3C)[nH]c2cc1C [Example 77, 1-[(2R,4R)-2-(5,6-dimethyl-1H-benzimidazol-2-yl)-1-methylpiperidin-4-yl]-3-[6-(trifluoromethyl)pyridin-3-yl]urea hydrochloride] | 100 |
| CN1CC[C@@H](NC(=O)Cc2ccc(Cl)s2)C[C@@H]1c1nc2ccccc2[nH]1 [Example 78, N-[(2R,4R)-2-(1H-benzimidazol-2-yl)-1-methylpiperidin-4-yl]-2-(5-chloro-2-thienyl)acetamide hydrochloride] | 99.3 |
| CN1CC[C@@H](NC(=O)c2ccc3c(c2)OCCO3)C[C@@H]1c1nc2ccc(C(F)(F)F)cc2[nH]1 [Example 79, N-{(2R,4R)-1-methyl-2-[6-(trifluoromethyl)-1H-benzimidazol-2-yl]piperidin-4-yl}-2,3-dihydro-1,4-benzodioxine-6-carboxamide hydrochloride] | 99.2 |
| CN1CC[C@@H](NC(=O)Nc2cccnc2)C[C@@H]1c1nc2ccccc2[nH]1 [Example 80, 1-[(2R,4R)-2-(1H-benzimidazol-2-yl)-1-methylpiperidin-4-yl]-3-pyridin-3-ylurea hydrochloride] | 98 |
| Cc1ccc(NC(=O)N[C@@H]2CCN(C)[C@@H](c3nc4ccccc4[nH]3)C2)cn1 [Example 81, 1-[(2R,4R)-2-(1H-benzimidazol-2-yl)-1-methylpiperidin-4-yl]-3-(6-methylpyridin-3-yl)urea hydrochloride] | 97.8 |
| O=C(N[C@@H]1CCN(C2CCC2)[C@@H](c2nc3ccccc3[nH]2)C1)c1ccc2c(c1)OCCO2 [Example 82, N-[(2R,4R)-2-(1H-benzimidazol-2-yl)-1-cyclobutyl-piperidin-4-yl]-2,3-dihydro-1,4-benzodioxine-6-carboxamide hydrochloride] | 96.8 |
